Data reported in patent US20220227815A1, “COMPOSITIONS AND METHODS USEFUL IN TREATING BRAIN DISEASES” (University of Kansas, priority 2019, published 2022).
“And” between values parts separate entries of the source, which are not always exact repeats. Identical values can stand only once. “Also recorded” adds a separate entry of the source. Non-standard residues stand in square brackets, D forms with d. Residues, ends and D or L forms follow the SMILES beside them. ξ: configuration not given here. Thr(3ξ) = CC(O)[C@H](N)C(=O)O

What was measured:
[1] = Peripheral organ deposition of IRdye800CW-labeled proteins by NIRF imaging; format: in vivo, C57BL/6 mice; settings: for IgG mAb deposition in other organs (liver, kidney, heart, spleen, lungs) compared to control: IgG mAb 21.6 nmol/kg + 13 μmol/kg peptide i.v., NIRF signal intensity, n=3
Description: (§1) The activity of each peptide in enhancing blood-brain barrier (BBB) penetration was evaluated by delivering IRdye800CW donkey anti-goat IgG mAb in C57BL/6 mice; the amounts of mAb in the brain were determined using NIRF imaging. Each group contained 3 mice per group (n=3) with a mixture of male and female mice, selected randomly for each arm of the study. The injection solution was prepared by adding 600 μL PBS into 0.5 mg lyophilized IgG mAb; then, approximately 1.5 mg lyophilized peptide was added into the mixture yielding the injectable formulation. A 100 μL solution of a mixture containing IgG mAb (21.6 nmol/kg) along with 13 μmol/kg peptide of the present technology was administered via tail vein. As a control, 100 μL of IgG mAb alone was administered via i.v. route. After the delivered molecules had been circulating for 15 min, the mice were sacrificed; then, a mixture of PBS with 0.5% Tween20 was administered for cardiac perfusion to remove the blood and […] molecules into the brain microvessels. The brain and other organs such as lung, heart, spleen, liver, and kidney were harvested and rinsed with PBS. The isolated organs were scanned with Odyssey® CLx for mAb quantification.
(§2) The BBB modulatory activities of ADTC5 and HAV6 to enhance brain delivery of IRdyeR800CW-labeled lysozyme, albumin, IgG mAb, and fibronectin were compared in C57BL/6 mice. The proteins with or without 13 μmol/kg HAV6 or ADTC5 were administered via tail vein injection. For lysozyme, the delivered doses were 21.6 and 54 nmol/kg. For albumin, IgG mAb, and fibronectin, the dose used was 21.6 nmol/kg. Fifteen minutes after IgG mAb administration with or without a peptide of the present technology, the animals were sacrificed and PBS with 0.5% Tween-20 was administered for cardiac perfusion to remove the remaining protein in the BBB microvessels. The brain and other organs such as lung, heart, spleen, liver and kidney were harvested and rinsed with PBS. Protein depositions in the brain and other organs were quantified by NIRF imaging using an Odyssey CLx NIRF scanner.

[2] = test system: blood-brain barrier (BBB); test: In vivo brain delivery of IRdye800CW-IgG mAb, NIRF quantification in brain homogenates; settings: C57BL/6 mice; for average amount of IgG mAb in the brain: IRdye800CW-IgG mAb 21.6 nmol/kg i.v. alone or with 13 μmol/kg peptide, 15 min circulation, n=3; for brain delivery of IgG mAb compared to control (IgG mAb alone): IgG mAb 21.6 nmol/kg + 13 μmol/kg peptide i.v.
Description: as §1
The brain deposition of IgG mAb was also quantified by NIRF imaging in brain homogenates. The isolated brains were mechanically homogenized in 2.0 mL of PBS. To make the standard solutions, IRDye800CW IgG mAb stock solution (70 μg/mL) was prepared; it was then diluted with various amounts of PBS to make six different mAb concentrations. To generate a calibration curve, the brain homogenate (200 μL) was aliquoted out to a 96-well plate. 10 μL of each concentration of IgG mAb was added to three different wells of blank brain homogenates. The standard spiked homogenates were at a range of 10-200 ng/mL IgG mAb in brain homogenate. The wells were scanned using the Odyssey® CLx scanner, and the signal intensities vs. concentrations of mAb per gram of brain were used to generate a calibration curve.
as §2
(§3) A second quantification method was done using brain homogenates. In this case, the brains were homogenized in 2.0 mL PBS by mechanical disruption and 200 μL of homogenized brain (n=8) was aliquoted to a 96-well plate followed by quantification using the Odyssey CLx scanner. The signal intensity was compared to calibration curve and normalized to brain weight and homogenate volume.

[3] = test system: blood-brain barrier (BBB); test: In vivo brain delivery of IRdye800CW-albumin (65 kDa); settings: IRdye800CW-albumin 21.6 nmol/kg i.v. alone or with 13 μmol/kg peptide, C57BL/6 mice
Description: as §2, §3
(§4) Brain Perfusion. After euthanasia using CO2 chamber, mice were immediately subjected to cervical dislocation followed by removal of IRdye800CW-labeled protein from the brain capillaries using perfusion solution. In this case, a solution containing PBS with 0.2% Tween-20 was transcardially perfused to remove the remaining protein molecules in the brain endothelial microvessels. After perfusion, the brain was removed from the skull and subjected to capillary depletion.

[4] = test system: blood-brain barrier (BBB); test: In vivo brain delivery of IRdye800CW-lysozyme (15 kDa); design: species or system C57BL/6 mice; settings: for amount of lysozyme in the brain: IRdye800CW-lysozyme 54 nmol/kg i.v. alone or with 13 μmol/kg peptide, C57BL/6 mice
Description: Preparation of Stock and Standard Curves. The stock solution for IRDye800CW protein (i.e., lysozyme, 70 μg/mL) was prepared and stored at −80° C. The stock solution was later diluted with PBS to make the required standard solutions. To produce a standard calibration curve, 200 μL of blank brain homogenates was spiked with 10 μL standard solutions of various concentrations to yield a linear range from 0.5 to 50 ng/mL. The same method was employed for the sample's quality control (QC).
as §2, §3, §4

[5] = test system: blood-brain barrier (BBB); test: In vivo brain delivery of IRdye800CW-fibronectin (220 kDa); design: species or system C57BL/6 mice; settings: IRdye800CW-fibronectin 21.6 nmol/kg i.v. alone or with ADTC5 13 μmol/kg
Description: as §2, §3, §4

[6] = albumin 21.6 nmol/kg with 13 μmol/kg peptide, NIRF

IgG mAb deposition in other organs (liver, kidney, heart, spleen, lungs) compared to control [1] | Compound | average amount of IgG mAb in the brain [2] | brain delivery of IgG mAb compared to control (IgG mAb alone) [2] | also measured
no significant difference | CC(=O)N[C@@H](CO)C(=O)N[C@@H](Cc1c[nH]cn1)C(=O)N[C@@H](C)C(=O)N[C@H](C(=O)N[C@@H](CO)C(=O)N[C@@H](CO)C(N)=O)C(C)C [HAV6, acetyl-SHAVSS-NH2] (Ac-SHAVSS-NH2) | 3.4±0.4 pmol/g brain and 3.42±0.5 pmol/g brain and 3.4 ± 0.5 pmol/g brain | did not enhance; also recorded: not able to deliver mAb | distribution of mAb into liver ([1]; IgG mAb 21.6 nmol/kg with 13 μmol/kg peptide, compared to control): about the same; deposition of albumin in the spleen compared to control [1, 6]: enhanced; distribution of albumin into the liver compared to control [1, 6]: significantly enhanced; lysozyme deposition in the kidney ([1]; lysozyme 54 nmol/kg with 13 μmol/kg peptide, NIRF): followed by the HAV6-treated group; amount of albumin in the brain [3]: 15.5±3.1 pmol/g brain; amount of lysozyme in the brain [4]: 8.3±2.5 pmol/g brain; brain delivery of lysozyme compared to lysozyme alone ([4]; lysozyme 21.6 nmol/kg with 13 μmol/kg peptide): no significant improvement
no significant difference | CC(C)[C@@H]1NC(=O)[C@H](C)NC(=O)[C@H](Cc2c[nH]cn2)NC(=O)[C@H](CO)NC(=O)[C@H](CO)NC(=O)[C@H](CO)NC1=O [HAVN1, cyclo(1,6)SHAVSS] (cyclo(AVSSSH)) | 8.6±0.5 pmol/g brain | significantly enhanced; also recorded: significant difference | –
no significant difference | CC(C)[C@@H]1NC(=O)[C@H](C)NC(=O)[C@H](Cc2c[nH]cn2)NC(=O)[C@H](CO)NC(=O)[C@H](CO)NC1=O [HAVN2, cyclo(1,5)SHAVS] (cyclo(AVSSH)) | 8.8±0.6 pmol/g brain | significantly enhanced; also recorded: significant difference | –
– | Albumin [reference compound] | – | – | amount of albumin in the brain [3]: 11.8 ± 1.0 pmol/g brain; amount of albumin in the brain ([3]; listed as albumin): 11.8±1.0 pmol/g brain
– | Lysozyme [reference compound] | – | – | amount of lysozyme in the brain [4]: 0 ± 0 pmol/g brain; amount of lysozyme in the brain ([4]; listed as lysozyme): below the detection limits
– | fibronectin [reference compound] | – | – | NIRF signal of fibronectin in brain homogenates [5]: 33.026±2.080 ×10^3 A.U.

Compound | IgG mAb deposition in other organs (liver, kidney, heart, spleen, lungs) compared to control [1] | average amount of IgG mAb in the brain [2] | brain delivery of IgG mAb compared to control (IgG mAb alone) [2] | also measured
CC(C)[C@@H]1NC(=O)[C@H](C)NC(=O)[C@H](Cc2c[nH]cn2)NC(=O)[C@H](CO)NC(=O)[C@H](C(C)C)NC(=O)[C@@H]2CCCN2C(=O)[C@@H]2CCCN2C(=O)[C@H](C(C)O)NC1=O (stereo partly drawn) (cyclo(AV[Thr(3ξ)]PPVSH)) | significant increases in deposition of IgG mAb in liver, kidney, spleen, and lungs; also recorded: significant differences in the IgG mAb signal in lung, kidney, spleen, and liver | 15.7±0.8 pmol/g brain | significantly better than in the PBS control; also recorded: significant difference | –
CC(=O)N[C@H](C(=O)N1CCC[C@H]1C(=O)N1CCC[C@H]1C(=O)N[C@H](C(=O)N[C@@H](CO)C(=O)N[C@@H](Cc1c[nH]cn1)C(=O)N[C@@H](C)C(=O)N[C@H](C(N)=O)C(C)C)C(C)C)C(C)O (stereo partly drawn) [linear ADTHAV] | significant effects on the distribution of IgG mAb in the heart and kidney; also recorded: significance differences in the IgG mAb signal intensities for kidney and heart | 11.8±0.5 pmol/g brain | significantly better than in the PBS control; also recorded: significant difference | –
